Test results from patent publication US20050119330A1, “Use of antiproliferative agents in the treatment and prevention of pulmonary proliferative vascular diseases” (priority 2003, published 2005).
Several values for one entry are separate records, joined by “and”; a condition that tells them apart may be missing. Equal values may be shown once.

Tests used:
[1] = tested on: pneumonectomized, monocrotaline-treated rats; assay: Acute model of pulmonary arterial hypertension (left pneumonectomy, monocrotaline on Day 7); assay type: in vivo, Sprague-Dawley rats; conditions: for right ventricular systolic pressure (RVSP): Day 35; for mean pulmonary arterial pressure (mPAP): measured Day 35; for vascular occlusion score (VOS), 0 to 2: 25 consecutive small pulmonary arteries per rat
Description: Methods: On Day, 0, thirty pathogen-free 13-week-old, male Sprague-Dawley rats (350-400 g) were intubated, anesthetized with halothane (0.5%), and then underwent left pneumonectomy via thoracotomy as described in Faul, J. L. et al. (2000) Am. J. Respir. Crit. Care Med. 162:2252-2258; and Nishimura, R. et al., (2001) Am. J. Respir. Crit. Care Med. 163:498-502. On Day 7, rats received a single subcutaneous injection in the right hind limb of the plant alkaloid monocrotaline (60 mg/kg; Sigma, St. Louis, Mo.). Rats that were not subjected to any treatment were also included in the study (“normal” or “N”).
Twenty-four rats received monocrotaline (60 mg/kg s.c.), seven days after pneumonectomy. […] Rats that were not subjected to any treatment were also included in the study (“normal” or “N”). Rats in the control group, PMV (n=6), received vehicle (V) by oral gavage every day, beginning on Day 5.
On Day 35, rats underwent pulmonary artery catheterization for measurements of mean pulmonary artery pressures and right ventricular systolic pressures. Mean arterial, mean pulmonary arterial and right ventricular systolic blood pressures (mPAP and RVSP, respectively) were measured as described by Faul et al. and Nishimura et al. After exsanguination, the right lung, right ventricle and left ventricle plus septum were collected for histology. The organs were weighed and preserved and the RV/LV&S ratios determined. Organs fixed in formalin were embedded in paraffin, cut in 3 micron sections and stained with hematoxylin and eosin, and with elastin-von Geison stain.
The severity of neointimal formation was scored on elastin-van Geison (EVG)-stained lung sections: the absence of neointimal formation equals 0; the presence of neointimal proliferation causing less than 50% luminal narrowing equals 1; luminal narrowing greater than 50% equals 2. Immunohistochemistry was performed on formalin-fixed, paraffin-embedded lung sections using antibodies to α-smooth-muscle actin (Dako, 1:30 dilution, linked to alkaline phosphatase), and CD31, a monoclonal antibody with specificity for endothelial cells lining the vascular lumen (Dako, 1:40 dilution, detected using avidin-biotin-peroxidase method). Samples of right lung were immediately placed in 2.5% paraformaldehyde and routinely processed for transmission electron microscopy. Reverse-transcription PCR was used to amplify portions of the rat endothelial nitric oxide synthase gene (eNOS, GenBank U02534) and actin B (GenBank V01217) from rat lung. Primer sequences for eNOS were: 5′-[…]-3′ (SEQ ID NO:1) and 5′-[…]-3′ (SEQ ID NO:2). Five micrograms of total lung RNA were reverse-transcribed and amplified by PCR as described in Aoki, Y., et al. (1997) Am. J. Physiol. 272:L272-284. Endothelial NOS protein (60 μg) was analyzed by Western immunoblotting as described in Zhao, G. et al. (2000) Am. J. Physiol. 279:L958-L966, using anti-eNOS primary antibody (Santa Cruz sc-8311).

[2] = tested on: pneumonectomized, monocrotaline-treated rats; assay: Chronic model of pulmonary arterial hypertension (monocrotaline four weeks after pneumonectomy), rescue treatment; assay type: in vivo
Description: Methods: Rats were treated as described in Example 1, except that monocrotaline was administered four weeks after pneumonectomy. Pulmonary hypertension developed at Week 8 and increased in severity until death at Week 13. […] Hemodynamic measurements were performed on control and treated rats in order to determine mean arterial pressures and pressures at the right ventricle.
A quantitative analysis of neointimal luminal obstruction on 25 consecutive small pulmonary arteries from each rat in Group N, PMV0w, PMV2w, PMS2w, PMS6w, and PMS13w was performed (FIGS. 10A-10D). Histological samples were prepared and stained using Elastin-van-Geison (EVG) stain, ×600. Vessels were assessed for neointimal proliferative lesions and scored: Grade 0 for no evidence of neointimal formation, Grade 1 for less than 50% luminal occlusion, Grade 2 for >50% luminal occlusion.

[3] = tested on: pneumonectomized, monocrotaline treated rats; conditions: Faul et al. 2000; Nishimura 2001; cited from earlier work
[4] = Group PMS2w: two weeks of treatment
[5] = Group PMS6w: 6 weeks of treatment
[6] = after 13 weeks of simvastatin treatment

Row | Compound | right ventricular systolic pressure (RVSP) ([1]; Group PMS5-14: 2 mg/kg/day oral gavage Days 5-14) [mm Hg] | mean pulmonary arterial pressure (mPAP) ([1]; Group PMS5-14: simvastatin 2 mg/kg/day oral gavage Days 5-14) [mm Hg] | vascular occlusion score (VOS), 0 to 2 ([1]; Group PMS5-14) | right ventricular systolic pressure (RVSP) ([1]; Group PMS5-35: 40 mg/kg/day oral gavage Days 5-35) [mm Hg] | mean pulmonary arterial pressure (mPAP) ([1]; Group PMS5-35: simvastatin 40 mg/kg/day oral gavage Days 5-35) | vascular occlusion score (VOS), 0 to 2 ([1]; Group PMS5-35) | right ventricular systolic pressure (RVSP) ([1]; Group PMS15-35: 40 mg/kg/day oral gavage Days 15-35) [mm Hg] | mean pulmonary arterial pressure (mPAP) ([1]; Group PMS15-35: simvastatin 40 mg/kg/day oral gavage Days 15-35) [mm Hg] | vascular occlusion score (VOS), 0 to 2 ([1]; Group PMS15-35) | mean pulmonary arterial pressure (mPAP) ([2]; Group PMS2w: 2 mg/kg/day for two weeks from Week 11) [mm Hg] | right ventricular systolic pressure (RVSP) [2, 4] [mmHg] | vascular occlusion score (VOS), 0 to 2 [2, 4] | mean pulmonary arterial pressure (mPAP) ([2]; Group PMS6w: 2 mg/kg/day for 6 weeks from Week 11) [mm Hg] | right ventricular systolic pressure (RVSP) [2, 5] [mmHg] | vascular occlusion score (VOS), 0 to 2 [2, 5] | vascular occlusion score (VOS), 0 to 2 ([2]; Group PMS13w: 13 weeks of treatment) | mean pulmonary arterial pressure (mPAP) [2, 6] [mm Hg] | right ventricular systolic pressure (RVSP) [2, 6] [mmHg] | survival ([2]; simvastatin 2 mg/kg/day oral gavage from Week 11, no mortality up to Week 23, vehicle 0% survival at Week 15) [%] | development of pulmonary arterial hypertension and neointimal formation [3]
1 | CCC(C)(C)C(=O)O[C@H]1C[C@@H](C)C=C2C=C[C@H](C)[C@H](CC[C@@H]3C[C@@H](O)CC(=O)O3)[C@H]21 [simvastatin] | 66±12 | 44±4 | 0.78±0.40 | 37±4 | 27±3 mm Hg and 27 mm Hg | 1.5 and 0.59±0.46 | 54±10 | 38±3 | 0.93±0.38 | 36±2 | 53±7 | 1.34 | 24±3 | 34±3 | 0.83 | 0.65 | 22±3 | 30±3 | 100 | –
2 | CC(C)[C@]12O[C@H]1[C@@H]1O[C@]13[C@]1(O[C@H]1C[C@H]1C4=C(CC[C@@]13C)C(=O)OC4)[C@@H]2O [triptolide] | – | – | – | – | – | – | – | – | – | – | – | – | – | – | – | – | – | – | – | could inhibit the development of pulmonary arterial hypertension and neointimal formation
